Reference: US20110257108A1, “SYNTHESIS AND ACTIVITY OF LACTOSE ESTERS” (Utah State University, priority 2010, published 2011)

Key:
[1] = Method: Aliquots, 600 μL, of each filtered sample were dried by a Savant SpeedVac system. The dry sugar in each tube was re-suspended in 600 μL de-ionized water. […] The amount of sugar in each sample was determined by comparing peak areas to the lactose-in-water control.
[2] = system: clinical isolates of Listeria monocytogenes; experiment: Microbial inhibitory studies with clinical isolates (microtitre well plate method, plate counts); assay type: cell-based
Source text: Referring now to FIGS. 8 through 12, in light of the microbial inhibitory effect shown with Listeria monocytogenese, we obtained clinical isolates of Listeria monocytogenes from the International Life Science Institute Database, Cornell University and tested LM at the same concentrations as listed above with the clinical isolate. Inhibitory effects against clinical isolates of Listeria monocytogenese are shown in FIGS. 8, 9, 10, 11 and 12 (inhibition shown is percent growth inhibition). The clinical isolates are described in Table 5.
Still referring to FIGS. 8 through 12, microbial inhibitory studies were carried out in microtitre well plate method. Cultures were grown in appropriate microbial media with antibiotics and diluted to 10^5 colony forming units (CFU) per mL. Cultures (0.5 mL or 10^2.5 CFU total) were added to microtiter wells and an initial optical density (OD) at 600 nm was recorded. The studies were conducted by adding different concentrations of LML as described above with appropriate controls (media only, media plus cells, media plus cells and 0.1% Polysorbate 80, same amount of ethanol as in the vol of LML plus 0.1% polysorbate 80 with cells). Plate counts of all controls and treatments were done. For each strain and treatment, the experiments were done 6 times and replicated at least once. Data shown has a coefficient of variation of less than 10%. […]

[3] = system: Escherichia coli H7P:0157H7 (ATCC 35150); experiment: Microbial growth inhibition (microtiter OD 600 nm, 48 hours); assay type: cell-based; settings: gram negative; LML 0.001 to 0.1%; FIG. 7
Method: (§1) Referring now to FIG. 7 and Table 4, the microbial inhibitory characteristics of LML synthesized and purified as described above, were investigated against Enterococcus faecalis (ATCC 700802), Listeria monocytogenes, Staphyloccus suis, Escherichia coli H7P:0157H7 (ATCC 35150), Salmonella typhimurium (ATCC 700720) and Klebsiella pneumoniae (ATCC 700721). Cultures were grown in appropriate microbial media with antibiotics and diluted to 10^5 colony forming units (CFU) per mL. Cultures (0.5 mL or 10^2.5 CFU total) were added to microtiter wells and an initial optical density (OD) at 600 nm was recorded. For treatments, LML in concentrations ranging from 0.001 to 0.1% was added to individual microtiter wells and the OD was again measured after 48 hours. Controls were treated similarly, but without the addition of LML. Percent growth inhibition was determined by comparing the OD reading for the controls and treatments.

[4] = system: Salmonella typhimurium (ATCC 700720); experiment: as above; assay type: cell-based; settings: gram negative; LML 0.001 to 0.1%; FIG. 7
Method: as §1

[5] = system: Enterococcus faecalis (ATCC 700802); experiment: as above; assay type: cell-based; settings: gram positive, FIG. 7
Method: as §1

Staphyloccus suis = experiment: as above; assay type: cell-based; settings: gram positive, FIG. 7
Method: as §1

Listeria monocytogenes = experiment: as above; assay type: cell-based; settings: gram positive, FIG. 7
Method: as §1

[6] = system: Klebsiella pneumoniae (ATCC 700721); experiment: as above; assay type: cell-based; settings: gram negative; LML 0.001 to 0.1%; FIG. 7
Method: as §1

Q: Which “solubility in 2M2B” value [1] does the source give for `OC[C@H]1O[C@@](CO)(O[C@H]2O[C@H](CO)[C@@H](O)[C@H](O)[C@H]2O)[C@@H](O)[C@@H]1O` [sucrose] here?
A: 700-800 micromol/L solvent

Q: What about the “solubility in the other solvents” value [1] of the same compound?
A: 50-200 micromol/L solvent

Q: Which percent growth inhibition ([2]; LML 1.0 mg/mL, each strain (J1-177, C1-056, N3-013, R2-499, N1-227), with 0.1% Polysorbate 80, versus control with ethanol and tween) does the source give for lactose monolaurate [LML] here?
A: 70-90%

Q: And the “type of inhibition (plate counts)” value ([2]; plate counts of treatments compared to the controls)?
A: bacterial static

Q: And the susceptibility to inhibition [3]?
A: minimal susceptibility

Q: What about the susceptibility to inhibition [4] of the same compound?
A: minimal susceptibility

Q: What about the growth inhibition ([5]; LML 0.005% and less) of the same compound?
A: limited inhibition

Q: What about the growth inhibition ([5]; LML 0.1% (1 mg/mL)) of the same compound?
A: inhibited

Q: And the growth inhibition (Staphyloccus suis; LML 0.005% and less)?
A: limited inhibition

Q: And the growth inhibition (Staphyloccus suis; LML 0.1% (1 mg/mL))?
A: inhibited

Q: What about the growth inhibition (Listeria monocytogenes; LML 0.005% and less) of the same compound?
A: limited inhibition

Q: What about the growth inhibition (Listeria monocytogenes; LML 0.1% (1 mg/mL)) of the same compound?
A: inhibited

Q: And the susceptibility to inhibition [6]?
A: minimal susceptibility
